What was measured:
MRSA = details: 5 micrograms per ml
in vitro = details: human, MRC-5 cells (human embryonal lung fibroblasts)
[1] = Cytotoxicity (dye uptake cell viability) in HepG2-2.2.15 cells; details: human
Pseudomonas aeruginosa = details: 5 micrograms per ml
Streptococcus pneumoniae = details: 5 micrograms per ml

For CSCC[C@H](NC(=O)[C@H](CCCNC(=N)N)NC(=O)[C@H](Cc1ccc(O)cc1)NC(=O)[C@@H]1CCCN1C(=O)CNC(=O)[C@H](CCC(=O)O)NC(=O)[C@H](CC(=O)O)NC(=O)[C@H](CCCCN)NC(=O)[C@H](CCCCN)NC(=O)[C@H](CCC(=O)O)NC(=O)[C@H](C)N)C(=O)N[C@@H](CCC(=O)O)C(=O)N[C@@H](Cc1c[nH]cn1)C(=O)N[C@@H](Cc1ccccc1)C(=O)N[C@@H](CCCNC(=N)N)C(=O)N[C@@H](Cc1c[nH]c2ccccc12)C(=O)NCC(=O)N[C@@H](CO)C(=O)N1CCC[C@H]1C(=O)N1CCC[C@H]1C(=O)N[C@@H](CCCCN)C(=O)N[C@@H](CC(=O)O)C(=O)O [Beta MSH], the “% inhibition” value (MRSA) was 0.0%, the viability at 144 h (in vitro) was 100% and the viability at 144 h, 10 micrograms per ml [1] was 100%. For the same compound, the “% inhibition” value (Pseudomonas aeruginosa) was 0.0% and the “% inhibition” value (Streptococcus pneumoniae) was 0.0%.
